According to patent US20140200134A1, “Anthranilamide Compounds and their use as Pesticides” (BASF SE, priority 2011, published 2014):

Experiments:
Type in all cases: in vivo
[1] = tested on: Cowpea aphid (aphis craccivora); test: Cowpea aphid spray test on potted cowpea plants; conditions: sprayed cowpea plants, assessed after 72 hours, read-out: mortality in comparison with untreated controls
Protocol: B.1 Cowpea aphid (aphis craccivora)
The active compound was dissolved at the desired concentration in a mixture of 1:1 (vol:vol) distilled water:acetone. Surfactant (Alkamuls® EL 620) was added at a rate of 0.1% (vol/vol). The test solution was prepared at the day of use.
Potted cowpea plants were colonized with approximately 50-100 aphids of various stages by manually transferring a leaf tissue cut from infested plant 24 hours before application. Plants were sprayed after the pest population had been recorded. Treated plants were maintained on light carts at about 28° C. Percent mortality was assessed after 72 hours.

[2] = tested on: Diamond back moth (plutella xylostella); test: Diamond back moth cabbage leaf-dip test; conditions: dipped cabbage leaves, 3rd instar larvae, 72 hours after treatment, read-out: mortality in comparison with untreated controls
Protocol: B.2 Diamond back moth (plutella xylostella)
The active compound was dissolved at the desired concentration in a mixture of 1:1 (vol:vol) distilled water:acteone. Surfactant (Alkamuls® EL 620) was added at a rate of 0.1% (vol/vol). The test solution was prepared at the day of use.
Leaves of cabbage were dipped in test solution and air-dried. Treated leaves were placed in petri dishes lined with moist filter paper and inoculated with ten 3rd instar larvae. Mortality was recorded 72 hours after treatment. Feeding damages were also recorded using a scale of 0-100%.

[3] = tested on: Mediterranean fruitfly (Ceratitis capitata); test: Mediterranean fruitfly microtiter plate diet test; conditions: 120 h, sprayed onto insect diet, egg and larval mortality after 5 days, read-out: mortality in comparison with untreated controls
Protocol: B.3 Mediterranean fruitfly (Ceratitis capitata)
For evaluating control of Mediterranean fruitfly (CeratitiS capitate) the test unit consisted of microtiter plates containing an insect diet and 50-80 C. capitata eggs.
(§1) The compounds were formulated using a solution containing 75% v/v water and 25% v/v DMSO. Different concentrations of formulated compounds were sprayed onto the insect diet at 5 μl, using a custom built micro atomizer, at two replications.
After application, microtiter plates were incubated at about 28±1° C. and about 80±5% relative humidity for 5 days. Egg and larval mortality was then visually assessed.

[4] = tested on: Orchid thrips (dichromothrips corbetti); test: Orchid thrips floral-immersion test; conditions: dipped orchid flowers, adult thrips, 72 hours after treatment, read-out: mortality in comparison with untreated controls
Protocol: B.4 Orchid thrips (dichromothrips corbetti)
Dichromothrips corbetti adults used for bioassay were obtained from a colony maintained continuously under laboratory conditions. For testing purposes, the test compound was diluted in a 1:1 mixture of acetone:water (vol:vol), plus 0.01% vol/vol Alkamuls® EL 620 surfactant.
Thrips potency of each compound was evaluated by using a floral-immersion technique. Plastic petri dishes were used as test arenas. All petals of individual, intact orchid flowers were dipped into treatment solution and allowed to dry. Treated flowers were placed into individual petri dishes along with about 20 adult thrips. The petri dishes were then covered with lids. All test arenas were held under continuous light and a temperature of about 28° ° C. for duration of the assay. After 3 days, the numbers of live thrips were counted on each flower, and along inner walls of each petri dish. The percent mortality was recorded 72 hours after treatment.

[5] = tested on: Vetch aphid (Megoura viciae); test: Vetch aphid broad bean leaf disk microtiter test; conditions: foliar, 120 h, sprayed broad bean leaf disks, adult aphids, 5 days, read-out: mortality in comparison with untreated controls
Protocol: B.6 Vetch aphid (Megoura viciae)
For evaluating control of vetch aphid (Megoura viciae) through contact or systemic means the test unit consisted of 24-well-microtiter plates containing broad bean leaf disks. The compounds were formulated using a solution containing 75% v/v water and 25% v/v DMSO. Different concentrations of formulated compounds were sprayed onto the leaf disks at 2.5 μl, using a custom built micro atomizer, at two replications.
After application, the leaf disks were air-dried and 5-8 adult aphids placed on the leaf disks inside the microtiter plate wells. The aphids were then allowed to suck on the treated leaf disks and incubated at about 23±1° C. and about 50±5% relative humidity for 5 days. Aphid mortality and fecundity was then visually assessed.

[6] = tested on: Tobacco budworm (Heliothis virescens); test: Tobacco budworm foliar spray test on cotton plants; conditions: 96 h, sprayed cotton plants, larvae, 4 days after treatment, read-out: mortality in comparison with untreated controls
Protocol: B.7 Tobacco budworm (Heliothis virescens) I
(§2) The active compounds were formulated in cyclohexanone as a 10,000 ppm solution supplied in tubes. The tubes were inserted into an automated electrostatic sprayer equipped with an atomizing nozzle and they served as stock solutions for which lower dilutions were made in 50% acetone:50% water (v/v). A nonionic surfactant (Kinetic®) was included in the solution at a volume of 0.01% (v/v).
Cotton plants were grown 2 plants to a pot and selected for treatment at the cotyledon stage. Test solutions were sprayed onto the foliage by an automated electrostatic plant sprayer equipped with an atomizing spray nozzle. The plants were dried in the sprayer fume hood and then removed from the sprayer. Each pot was placed into perforated plastic bags with a zip closure. About 10 to 11 budworm larvae were placed into the bag and the bags zipped closed. Test plants were maintained in a growth room at about 25° C. and about 20-40% relative humidity for 4 days, avoiding direct exposure to fluorescent light (24 hour photoperiod) to prevent trapping of heat inside the bags. Mortality and reduced feeding were assessed 4 days after treatment, compared to untreated control plants.

[7] = tested on: Boll weevil (Anthonomus grandis); test: Boll weevil microtiter plate diet test; conditions: 120 h, sprayed onto insect diet, egg and larval mortality after 5 days, read-out: mortality in comparison with untreated controls
Protocol: B.8 Boll weevil (Anthonomus grandis)
For evaluating control of boll weevil (Anthonomus grandis) the test unit consisted of 96-well-microtiter plates containing an insect diet and 20-30 A. grandis eggs.
as §1
After application, microtiter plates were incubated at about 25±1° C. and about 75±5% relative humidity for 5 days. Egg and larval mortality was then visually assessed.

[8] = tested on: Green Peach Aphid (Myzus persicae); test: Green peach aphid spray test on bell pepper plants; conditions: 120 h, sprayed infested bell pepper plants, after 5 days, read-out: mortality in comparison with untreated controls
Text: B.9 Green Peach Aphid (Myzus persicae)
as §2
Bell pepper plants at the first true-leaf stage were infested prior to treatment by placing heavily infested leaves from the main colony on top of the treatment plants. Aphids were allowed to transfer overnight to accomplish an infestation of 30-50 aphids per plant and the host leaves were removed. The infested plants were then sprayed by an automated electrostatic plant sprayer equipped with an atomizing spray nozzle. The plants were dried in the sprayer fume hood, removed, and then maintained in a growth room under fluorescent lighting in a 24-hr photoperiod at about 25° C. and about 20-40% relative humidity. Aphid mortality on the treated plants, relative to mortality on untreated control plants, was determined after 5 days.

CNC(=O)c1cc(/C=N/OC)cc(C)c1NC(=O)c1ccc(C(F)(F)F)cc1-c1ncccc1Cl [Compound 1-1, 2-[[2-(3-chloro-2-pyridyl)-4-(trifluoromethyl)benzoyl]amino]-5-[(E)-methoxyiminomethyl]-N,3-dimethyl-benzamide]
> 75%: mortality at 500 ppm [1] | mortality at 500 ppm [2] | mortality at 2500 ppm [3] | mortality at 500 ppm [4] | mortality at 2500 ppm [5] | mortality at 2500 ppm [6] | mortality at 2500 ppm [7] | mortality at 2500 ppm [8]

CNC(=O)c1cc(/C=N/NC(N)=O)cc(C)c1NC(=O)c1ccc(C(F)(F)F)cc1-c1ncccc1Cl [Compound 1-3, 5-[(E)-(carbamoylhydrazono)methyl]-2-[[2-(3-chloro-2-pyridyl)-4-(trifluoromethyl)benzoyl]amino]-N,3-dimethyl-benzamide]
> 75%: mortality at 500 ppm [1] | mortality at 2500 ppm [6] | mortality at 2500 ppm [8]

CNC(=O)c1cc(-n2cncn2)cc(C)c1NC(=O)c1ccc(C(F)(F)F)cc1-c1ncccc1Cl [Compound 1-2, 2-[[2-(3-chloro-2-pyridyl)-4-(trifluoromethyl)benzoyl]amino]N,3-dimethyl-5-(1,2,4-triazol-1-yl)benzamide]
> 75%: mortality at 500 ppm [1] | mortality at 2500 ppm [3] | mortality at 500 ppm [4] | mortality at 2500 ppm [5] | mortality at 2500 ppm [6] | mortality at 2500 ppm [7] | mortality at 2500 ppm [8]
